Measured values: ChEMBL document CHEMBL1201862, “PubChem BioAssay data set” (2004)
Calls of active or inactive are those of the source.

Experiments:
[1] = biological target: T1, Fructose-bisphosphate aldolase (Mycobacterium tuberculosis, UniProt P9WQA3); experiment: Fluorescence-based biochemical high throughput dose response assay for inhibitors of the fructose-bisphosphate aldolase (FBA) of M. tuberculosis.; assay type: functional
T1 sequence (P9WQA3 whole entry): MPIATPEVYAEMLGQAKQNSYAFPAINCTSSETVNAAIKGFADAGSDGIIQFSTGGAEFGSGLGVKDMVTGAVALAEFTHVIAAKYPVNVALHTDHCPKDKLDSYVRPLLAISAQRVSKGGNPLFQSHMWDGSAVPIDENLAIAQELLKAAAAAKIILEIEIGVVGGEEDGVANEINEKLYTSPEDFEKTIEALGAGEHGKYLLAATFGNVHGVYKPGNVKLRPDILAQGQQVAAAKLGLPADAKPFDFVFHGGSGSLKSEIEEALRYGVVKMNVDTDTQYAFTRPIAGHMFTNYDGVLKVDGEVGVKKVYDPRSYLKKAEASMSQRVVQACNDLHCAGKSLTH

[2] = biological target: T2, DNA repair and recombination protein RAD54-like (Homo sapiens, UniProt Q92698); experiment: RAD54 Holliday junction migration blockers – biochemical, fluorescence, cherry-picked samples, dose series, confirmation (AID 651657); assay type: functional
T2 sequence (Q92698 whole entry): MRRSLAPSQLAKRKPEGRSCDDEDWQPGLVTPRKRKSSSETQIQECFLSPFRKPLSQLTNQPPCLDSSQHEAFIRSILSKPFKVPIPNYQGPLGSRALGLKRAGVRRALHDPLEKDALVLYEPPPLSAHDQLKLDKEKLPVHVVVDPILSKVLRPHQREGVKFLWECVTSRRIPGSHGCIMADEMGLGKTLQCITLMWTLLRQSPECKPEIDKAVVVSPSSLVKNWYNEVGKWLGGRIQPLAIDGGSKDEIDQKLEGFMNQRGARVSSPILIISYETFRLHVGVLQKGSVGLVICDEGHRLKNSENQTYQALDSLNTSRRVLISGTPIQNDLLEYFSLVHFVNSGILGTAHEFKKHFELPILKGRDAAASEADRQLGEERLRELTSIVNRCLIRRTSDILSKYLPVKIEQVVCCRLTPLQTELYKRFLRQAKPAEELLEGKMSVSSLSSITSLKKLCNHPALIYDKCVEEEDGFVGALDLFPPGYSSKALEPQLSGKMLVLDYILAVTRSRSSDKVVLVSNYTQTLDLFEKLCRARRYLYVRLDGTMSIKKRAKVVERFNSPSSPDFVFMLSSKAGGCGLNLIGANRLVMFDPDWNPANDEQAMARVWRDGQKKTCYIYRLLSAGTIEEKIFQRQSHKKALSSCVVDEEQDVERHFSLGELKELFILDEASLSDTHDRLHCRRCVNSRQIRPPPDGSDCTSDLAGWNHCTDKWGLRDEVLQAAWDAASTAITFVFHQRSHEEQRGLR

[3] = biological target: T3, DNA repair protein RAD52 homolog (Homo sapiens, UniProt P43351); assay type: functional, biochemical
T3 sequence (P43351 whole entry): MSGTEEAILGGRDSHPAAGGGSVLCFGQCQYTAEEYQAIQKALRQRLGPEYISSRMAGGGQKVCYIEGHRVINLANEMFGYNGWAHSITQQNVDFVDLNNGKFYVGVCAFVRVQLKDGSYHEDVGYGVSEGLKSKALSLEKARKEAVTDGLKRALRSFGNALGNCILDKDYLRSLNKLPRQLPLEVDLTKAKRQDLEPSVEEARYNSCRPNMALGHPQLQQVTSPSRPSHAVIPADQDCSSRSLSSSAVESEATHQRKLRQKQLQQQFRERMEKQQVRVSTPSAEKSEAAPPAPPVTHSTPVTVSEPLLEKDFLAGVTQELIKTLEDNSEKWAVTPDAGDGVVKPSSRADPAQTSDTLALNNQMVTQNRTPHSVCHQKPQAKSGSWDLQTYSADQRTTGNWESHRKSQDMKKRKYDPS

[4] = test system: Streptococcus sp. 'group A'; experiment: Streptococcus pyogenes SK(-)GAS viability under kanamycin – luminescence, BacTiterGlo, confirmation, counter-screen for streptokinase expression inhibitor project, dose response (AID 1900); assay type: functional, organism-based
BJ [5] = experiment: BJ-TERT fibroblast viability loss – cell-based, RAS-independent, luminescence, dose response (AID 1933); assay type: functional; settings: Homo sapiens
Streptokinase A = biological target: T4, Streptokinase A (Streptococcus pyogenes serotype M1, UniProt P10520); experiment: viability-normalized secreted streptokinase activity reduction – plasminogen activation absorbance, OD405, dose response (AID 1914); assay type: functional, Streptococcus pyogenes M1 GAS;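 note: secreted streptokinase activity via plasminogen activation per viability signal from cell pellet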
T4 sequence (P10520 whole entry): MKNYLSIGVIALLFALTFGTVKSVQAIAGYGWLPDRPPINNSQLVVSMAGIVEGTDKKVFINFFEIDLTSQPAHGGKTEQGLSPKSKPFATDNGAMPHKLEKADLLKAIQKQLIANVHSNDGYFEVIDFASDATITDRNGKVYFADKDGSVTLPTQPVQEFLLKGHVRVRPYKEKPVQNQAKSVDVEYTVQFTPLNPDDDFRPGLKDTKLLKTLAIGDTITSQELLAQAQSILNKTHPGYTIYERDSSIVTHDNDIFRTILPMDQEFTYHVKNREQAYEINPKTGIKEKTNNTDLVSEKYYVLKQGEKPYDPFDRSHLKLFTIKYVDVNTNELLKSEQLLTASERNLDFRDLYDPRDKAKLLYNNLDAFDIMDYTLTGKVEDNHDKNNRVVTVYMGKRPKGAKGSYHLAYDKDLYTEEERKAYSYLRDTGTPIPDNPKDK

BJ [6] = experiment: cells; assay type: functional, cell-based; settings: Homo sapiens
Large T antigen = Large T antigen (Simian virus 40, UniProt P03070); assay type: functional, Betapolyomavirus macacae;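 note: Confirmatory-stage PubChem screen for compounds that inhibit SV40 T antigen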
[7] = biological target: Luciferin 4-monooxygenase (Photinus pyralis, UniProt P08659); experiment: inhibition of purified Photinus pyralis luciferase – biochemical, luminescence, dose response (AID 1891)
[8] = Luminescence Cell-Based Dose Confirmation HTS to Identify Inhibitors of Platelet Dense Granule Release. [Related pubchem assays: 1663 (Primary HTS), 1678 (Summary of Project)]; assay type: functional
BJ [9] = experiment: BJ-TERT-LT-ST fibroblast viability loss – cell-based, RAS-independent, luminescence, dose response (AID 1935); assay type: functional; settings: Homo sapiens;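 note: BJ fibroblasts immortalized with TERT plus LT and ST oncogenes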
[10] = DRD fibroblast viability loss – cell-based, non-viral oncogenic, luminescence, dose response (AID 1934); assay type: functional; settings: Homo sapiens
Streptococcus = experiment: GAS UMAA2166 growth inhibition – luminescence, BacTiterGlo, counter-screen for streptokinase expression inhibitor project, dose response (AID 1915); assay type: functional, organism-based;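 note: potency for reduction of bacterial viability or growth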
HEK293 = experiment: EBV LMP1 TES2 canonical NF-kB signalling blockers – cell-based, HEK293, luciferase, cherry-pick, dose response (AID 588343); assay type: functional; settings: Homo sapiens
[11] = biological target: T5, High affinity choline transporter 1 (Homo sapiens, UniProt Q9GZV3); experiment: human choline transporter blockers, potency – cell-based, 5-point CRC, membrane potential dye, dose response (AID 504840); assay type: functional
T5 sequence (Q9GZV3 whole entry): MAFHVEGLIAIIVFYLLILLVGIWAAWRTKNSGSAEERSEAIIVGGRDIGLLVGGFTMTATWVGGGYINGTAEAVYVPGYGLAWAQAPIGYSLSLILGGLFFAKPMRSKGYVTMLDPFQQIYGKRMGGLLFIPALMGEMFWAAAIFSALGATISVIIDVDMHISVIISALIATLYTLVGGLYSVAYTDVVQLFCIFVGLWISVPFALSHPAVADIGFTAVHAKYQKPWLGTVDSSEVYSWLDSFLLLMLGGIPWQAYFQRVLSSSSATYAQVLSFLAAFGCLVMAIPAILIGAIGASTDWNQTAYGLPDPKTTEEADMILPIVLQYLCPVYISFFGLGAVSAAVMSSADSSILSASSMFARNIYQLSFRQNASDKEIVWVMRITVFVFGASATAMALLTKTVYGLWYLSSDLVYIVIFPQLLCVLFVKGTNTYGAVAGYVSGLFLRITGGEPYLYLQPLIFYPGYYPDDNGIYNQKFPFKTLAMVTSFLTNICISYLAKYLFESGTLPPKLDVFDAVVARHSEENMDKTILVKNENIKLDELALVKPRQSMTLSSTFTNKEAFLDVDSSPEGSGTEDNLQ

Vero = experiment: viability of Vero cells under compound – cytotoxicity control for flavivirus capping enzyme inhibitors (AID 588742); assay type: functional; settings: Chlorocebus sabaeus
BJ [12] = experiment: growth inhibition of engineered Ras-driven BJ cells – cell-based, alamar blue fluorescence, cherrypicked samples, dose response (AID 2631); assay type: functional; settings: Homo sapiens;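 note: confirmatory dose-response assay in RAS-dependent BJ fibroblasts engineered with TERT, LT and ST, with cytotoxicity read by fluorescence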
Genome polyprotein = Genome polyprotein (dengue virus type 2, UniProt P29990); experiment: flavivirus cap methylation enzyme inhibition – biochemical, confirmation dose response, primary screen (AID 588689); assay type: functional
[13] = reduction of Shn3 3'UTR-driven luciferase in osteoblasts – cell-based, Clone20 osteoblasts, firefly luciferase, cherry-picked, dose response (AID 624132); assay type: functional;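 note: firefly luciferase luminescence from reporter carrying the Shn3 3'UTR in osteoblasts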
[14] = loss of viability in HepG2 cells – cell-based, CellTiter-Glo, cherry-picked, cytotoxicity control for Shn3 inhibitor project, dose response (AID 624134); assay type: functional
[15] = non-specific 3'UTR reporter inhibition in Clone20-Shn3RL – cell-based, Renilla luciferase, cherry-picked, counter-screen for Shn3 inhibitor project, dose response (AID 624133); assay type: functional
Fatty acid synthase [16] = biological target: T6, Fatty acid synthase (Homo sapiens, UniProt P49327); experiment: inhibition of human FAS-TE enzyme activity – biochemical, endpoint fluorescence intensity, uHTS hits, dose response (AID 624327); assay type: functional;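 note: fluorescence from hydrolysis of an O-methyl fluorescein acyl ester substrate by the enzyme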
Fatty acid synthase [17] = biological target: T6, Fatty acid synthase; experiment: inhibition of human FAS-TE enzyme activity – biochemical, kinetic fluorescence intensity, dose response (AID 624326); assay type: functional;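 note: rate of fluorescence rise from hydrolysis of a fluorogenic O-methyl fluorescein ester substrate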
Paired box protein Pax-8 = Paired box protein Pax-8 (Homo sapiens, UniProt Q06710); experiment: PAX8 transcriptional activity inhibition in RMG-I – RMG-I cells, luciferase, cherry-pick, dose response (AID 687027); assay type: functional, cell-based;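 note: luciferase reporter driven by Pax8 target thyroperoxidase promoter measured by SteadyGlo luminescence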
[18] = general cell-killing toxicity readout – plate reader, dry powder samples, cytotoxicity control for PAX8 inhibitor project, dose response (AID 743021); assay type: functional, cell-based
[19] = A549 cell cytotoxicity, dose response, cytotoxicity control, plate reader, cherry-pick, antagonist series (AID 743412); assay type: functional, cell-based
[20] = toxicity toward HepG2 liver cells – cell-based, plate reader, cherry-pick, antagonist series, cytotoxicity control, dose response (AID 743416); assay type: functional
[21] = blockers of bursicon-stimulated LGR2 cAMP reporter – cell-based, HEK293, CRE-luciferase reporter, cherry pick, set 2, dose response (AID 743343); assay type: functional;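 note: transfected cells were stimulated with diluted bursicon conditioned medium after compound addition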
[22] = blockade of melanocortin 4 receptor signaling – cell-based, plate reader, cherry pick, counter-screen for LGR2 antagonist project, dose response (AID 743444); assay type: functional;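 note: transfected HEK 293 cells stimulated with alpha-MSH peptide; potency of inhibitors of the alpha-MSH evoked signal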
[23] = viability loss in HEK293 cells – cell-based, plate reader, cherry-picked samples, cytotoxicity control, dose response (AID 743446); assay type: functional
cells [24] = assay type: functional, cell-based
cells [25] = assay type: functional, cell-based; remark: listed apart in the source

T6 sequence (P49327 whole entry): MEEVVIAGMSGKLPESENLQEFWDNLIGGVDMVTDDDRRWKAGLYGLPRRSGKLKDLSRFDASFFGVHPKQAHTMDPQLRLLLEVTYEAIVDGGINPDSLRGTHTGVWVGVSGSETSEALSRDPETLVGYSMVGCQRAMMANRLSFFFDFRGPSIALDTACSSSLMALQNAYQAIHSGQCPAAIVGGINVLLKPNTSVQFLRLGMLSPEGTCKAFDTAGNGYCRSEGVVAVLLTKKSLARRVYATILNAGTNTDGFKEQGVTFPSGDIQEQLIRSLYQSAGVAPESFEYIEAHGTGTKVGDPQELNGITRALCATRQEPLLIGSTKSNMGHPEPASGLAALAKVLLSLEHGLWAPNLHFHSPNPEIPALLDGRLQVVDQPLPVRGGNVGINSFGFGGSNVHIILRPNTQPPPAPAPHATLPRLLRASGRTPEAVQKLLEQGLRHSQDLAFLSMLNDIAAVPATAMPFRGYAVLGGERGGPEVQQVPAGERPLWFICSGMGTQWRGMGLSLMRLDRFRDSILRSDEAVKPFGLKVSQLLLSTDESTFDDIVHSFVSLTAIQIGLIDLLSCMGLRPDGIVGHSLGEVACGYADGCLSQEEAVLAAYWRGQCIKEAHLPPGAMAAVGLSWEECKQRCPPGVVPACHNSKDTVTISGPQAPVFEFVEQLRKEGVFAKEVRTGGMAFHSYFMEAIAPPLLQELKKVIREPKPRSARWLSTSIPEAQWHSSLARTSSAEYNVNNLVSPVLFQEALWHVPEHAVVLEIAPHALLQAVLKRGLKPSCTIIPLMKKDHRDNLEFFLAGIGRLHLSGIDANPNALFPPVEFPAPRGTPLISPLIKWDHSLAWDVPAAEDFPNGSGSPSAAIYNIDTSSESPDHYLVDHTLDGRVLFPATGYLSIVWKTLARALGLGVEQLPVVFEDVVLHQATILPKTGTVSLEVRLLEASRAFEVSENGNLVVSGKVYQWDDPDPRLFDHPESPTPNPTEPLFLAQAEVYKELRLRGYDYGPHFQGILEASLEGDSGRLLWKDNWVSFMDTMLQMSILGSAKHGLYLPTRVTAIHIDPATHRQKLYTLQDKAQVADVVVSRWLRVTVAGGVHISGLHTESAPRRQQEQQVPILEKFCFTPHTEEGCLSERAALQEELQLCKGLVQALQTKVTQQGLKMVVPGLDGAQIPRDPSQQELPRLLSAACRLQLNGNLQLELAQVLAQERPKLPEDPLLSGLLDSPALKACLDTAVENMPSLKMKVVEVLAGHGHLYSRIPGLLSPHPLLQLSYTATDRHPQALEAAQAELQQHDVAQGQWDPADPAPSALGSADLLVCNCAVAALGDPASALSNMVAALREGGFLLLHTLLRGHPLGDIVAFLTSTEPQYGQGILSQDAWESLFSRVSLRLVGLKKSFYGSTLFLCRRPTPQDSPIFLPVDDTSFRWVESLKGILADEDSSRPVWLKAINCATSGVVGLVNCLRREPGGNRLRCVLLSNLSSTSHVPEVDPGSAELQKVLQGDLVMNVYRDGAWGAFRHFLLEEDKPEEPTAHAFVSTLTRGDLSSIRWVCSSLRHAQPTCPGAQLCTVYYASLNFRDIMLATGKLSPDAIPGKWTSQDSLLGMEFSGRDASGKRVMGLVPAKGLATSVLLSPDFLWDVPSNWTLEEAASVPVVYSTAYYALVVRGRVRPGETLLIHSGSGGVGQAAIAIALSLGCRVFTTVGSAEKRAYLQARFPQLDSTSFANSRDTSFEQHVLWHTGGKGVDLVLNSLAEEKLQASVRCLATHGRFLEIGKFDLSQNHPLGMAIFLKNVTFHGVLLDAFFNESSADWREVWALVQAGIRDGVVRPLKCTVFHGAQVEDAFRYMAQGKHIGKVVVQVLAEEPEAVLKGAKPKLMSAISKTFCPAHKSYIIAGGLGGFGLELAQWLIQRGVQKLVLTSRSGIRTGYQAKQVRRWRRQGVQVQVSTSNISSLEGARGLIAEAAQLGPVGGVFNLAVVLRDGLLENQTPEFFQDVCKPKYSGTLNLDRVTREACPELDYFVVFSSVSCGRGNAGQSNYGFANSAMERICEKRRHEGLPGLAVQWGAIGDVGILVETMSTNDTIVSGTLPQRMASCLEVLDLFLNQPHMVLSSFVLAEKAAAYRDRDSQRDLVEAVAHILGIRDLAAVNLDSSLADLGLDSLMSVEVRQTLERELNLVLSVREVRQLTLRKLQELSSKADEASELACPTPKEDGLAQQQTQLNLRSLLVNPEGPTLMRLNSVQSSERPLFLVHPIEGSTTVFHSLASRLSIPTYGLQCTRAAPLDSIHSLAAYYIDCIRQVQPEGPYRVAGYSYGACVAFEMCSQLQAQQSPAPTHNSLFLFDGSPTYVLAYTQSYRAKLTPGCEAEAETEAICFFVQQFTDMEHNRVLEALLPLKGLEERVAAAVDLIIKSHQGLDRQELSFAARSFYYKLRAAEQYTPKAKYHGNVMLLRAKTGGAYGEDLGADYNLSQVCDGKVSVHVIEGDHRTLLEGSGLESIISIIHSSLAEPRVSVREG
Chain of Paired box protein Pax-8 (Q06710 whole entry): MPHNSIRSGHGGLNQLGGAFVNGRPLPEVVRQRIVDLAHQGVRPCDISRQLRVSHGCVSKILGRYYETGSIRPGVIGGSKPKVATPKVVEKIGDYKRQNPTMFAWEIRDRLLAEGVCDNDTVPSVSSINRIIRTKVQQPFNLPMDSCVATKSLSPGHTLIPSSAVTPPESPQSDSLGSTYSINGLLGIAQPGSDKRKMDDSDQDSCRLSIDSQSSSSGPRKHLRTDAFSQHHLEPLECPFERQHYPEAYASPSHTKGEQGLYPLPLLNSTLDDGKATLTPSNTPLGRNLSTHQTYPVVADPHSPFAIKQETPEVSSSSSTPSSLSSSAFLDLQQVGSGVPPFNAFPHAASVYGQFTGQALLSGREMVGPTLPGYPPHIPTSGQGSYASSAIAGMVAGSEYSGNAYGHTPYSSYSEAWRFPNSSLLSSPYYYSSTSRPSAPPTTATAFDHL
Chain of Genome polyprotein (P29990 2492-3391 limits assumed): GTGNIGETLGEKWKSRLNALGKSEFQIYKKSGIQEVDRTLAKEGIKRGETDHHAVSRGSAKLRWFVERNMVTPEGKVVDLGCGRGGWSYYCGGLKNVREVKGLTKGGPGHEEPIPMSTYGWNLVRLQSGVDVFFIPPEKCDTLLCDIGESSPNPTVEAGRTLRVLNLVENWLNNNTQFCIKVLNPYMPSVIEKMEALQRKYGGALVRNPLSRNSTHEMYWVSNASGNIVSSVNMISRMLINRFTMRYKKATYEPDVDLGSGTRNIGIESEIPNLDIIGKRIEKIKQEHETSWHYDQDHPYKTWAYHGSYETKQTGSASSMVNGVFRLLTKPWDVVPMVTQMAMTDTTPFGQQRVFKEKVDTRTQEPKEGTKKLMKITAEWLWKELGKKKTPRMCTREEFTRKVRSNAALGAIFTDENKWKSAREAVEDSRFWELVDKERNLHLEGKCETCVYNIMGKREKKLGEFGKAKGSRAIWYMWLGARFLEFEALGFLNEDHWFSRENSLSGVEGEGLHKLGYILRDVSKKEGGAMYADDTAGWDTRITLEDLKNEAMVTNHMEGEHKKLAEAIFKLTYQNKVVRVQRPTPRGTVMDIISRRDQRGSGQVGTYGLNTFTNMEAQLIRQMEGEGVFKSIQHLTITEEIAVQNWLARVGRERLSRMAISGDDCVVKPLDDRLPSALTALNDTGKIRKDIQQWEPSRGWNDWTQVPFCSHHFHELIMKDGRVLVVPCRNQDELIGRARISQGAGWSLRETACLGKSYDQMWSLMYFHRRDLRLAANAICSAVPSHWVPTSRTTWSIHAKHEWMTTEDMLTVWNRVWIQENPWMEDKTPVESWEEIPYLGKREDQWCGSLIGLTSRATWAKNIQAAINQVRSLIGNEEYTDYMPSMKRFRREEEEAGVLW
Chain of Luciferin 4-monooxygenase (P08659 whole entry): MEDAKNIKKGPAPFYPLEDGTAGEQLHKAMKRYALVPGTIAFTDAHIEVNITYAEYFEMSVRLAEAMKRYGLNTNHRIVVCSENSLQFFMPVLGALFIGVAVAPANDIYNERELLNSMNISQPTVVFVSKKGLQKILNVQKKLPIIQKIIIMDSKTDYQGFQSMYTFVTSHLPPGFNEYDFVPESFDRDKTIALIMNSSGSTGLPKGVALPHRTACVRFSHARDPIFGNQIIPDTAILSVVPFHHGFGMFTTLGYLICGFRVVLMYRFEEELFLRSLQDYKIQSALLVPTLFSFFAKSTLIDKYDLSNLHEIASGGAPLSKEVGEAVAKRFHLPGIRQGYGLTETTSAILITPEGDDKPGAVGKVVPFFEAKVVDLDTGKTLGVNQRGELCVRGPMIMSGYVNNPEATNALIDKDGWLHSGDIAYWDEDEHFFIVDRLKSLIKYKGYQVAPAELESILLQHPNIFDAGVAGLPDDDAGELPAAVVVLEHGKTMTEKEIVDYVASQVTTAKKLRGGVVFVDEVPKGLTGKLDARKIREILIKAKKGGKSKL
Chain of Large T antigen (P03070 whole entry): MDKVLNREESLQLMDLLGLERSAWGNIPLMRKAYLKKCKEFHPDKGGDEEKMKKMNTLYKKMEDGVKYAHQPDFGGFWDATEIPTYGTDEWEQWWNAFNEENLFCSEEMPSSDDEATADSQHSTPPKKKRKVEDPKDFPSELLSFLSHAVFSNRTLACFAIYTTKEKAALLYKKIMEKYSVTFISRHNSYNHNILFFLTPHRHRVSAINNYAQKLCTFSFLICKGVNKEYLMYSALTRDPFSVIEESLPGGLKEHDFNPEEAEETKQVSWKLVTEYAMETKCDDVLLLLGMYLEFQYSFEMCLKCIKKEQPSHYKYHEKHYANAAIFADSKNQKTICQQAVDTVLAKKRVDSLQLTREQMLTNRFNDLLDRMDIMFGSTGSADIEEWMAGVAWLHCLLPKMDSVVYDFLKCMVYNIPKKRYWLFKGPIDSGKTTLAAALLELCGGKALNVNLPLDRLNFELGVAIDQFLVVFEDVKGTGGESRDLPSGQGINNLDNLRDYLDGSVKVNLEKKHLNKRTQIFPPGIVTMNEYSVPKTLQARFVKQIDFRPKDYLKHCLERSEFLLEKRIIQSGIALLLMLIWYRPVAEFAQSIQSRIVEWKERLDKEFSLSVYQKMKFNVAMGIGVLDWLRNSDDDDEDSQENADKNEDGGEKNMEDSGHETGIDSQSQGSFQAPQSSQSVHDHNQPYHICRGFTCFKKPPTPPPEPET

Structure (SMILES): Cc1cc2c(SCc3ccccc3Cl)nc(N)nc2nc1C
- IC50 [1]: 0.833 µM (active)

Structure (SMILES): COc1ccc(CCNC(=O)c2cc3c(=O)n4ccccc4nc3n(CCCN3CCOCC3)c2=N)cc1OC
- AC50 [2]: 31 µM (active)
- AC50 [3]: 11.5 µM (active)

Structure (SMILES): COC(=O)CN(c1ccc2c(c1)OCCO2)S(=O)(=O)c1ccccc1
- IC50 [1]: > 9.99 µM (inactive)

Structure (SMILES): O=[N+]([O-])c1c(Nc2cccc(O)c2)cc(Cl)c2nonc12
- EC50 [4]: 7.24 µM (active)
- EC50 (BJ [5]): 2.6 µM (active)
- EC50 (Streptokinase A): 5.58 µM (active)
- EC50 (BJ [6]): 5.62 µM (inconclusive)
- IC50 (Large T antigen): 47.8 µM (active)
- EC50 [7]: > 112 µM (not active)
- EC50 [8]: 4.14 µM (active)
- EC50 (BJ [9]): 4.25 µM (inconclusive)
- EC50 [10]: 5.13 µM (active)
- EC50 (Streptococcus): 10.5 µM (active)
- AC50 (HEK293): 3.64 µM (active)
- IC50 [11]: 10.5 µM (active)
- CC50 (Vero): 33.7 µM (active)
- EC50 (BJ [12]): 585 nM (active)
- IC50 (Genome polyprotein): 26.2 µM (active)
- AC50 [13]: 683 nM (active)
- AC50 [14]: 12.5 µM (active)
- AC50 [15]: 5.66 µM (active)
- IC50 (Fatty acid synthase [16]): 5.29 µM (active)
- IC50 (Fatty acid synthase [17]): 3.24 µM (active)
- AC50 (Paired box protein Pax-8): 7.24 µM (active)
- AC50 [18]: 22.6 µM (active)

Structure (SMILES): COc1ccc(-c2cc(-c3ccccc3)c(C#N)c(SCC(=O)O)n2)cc1
- IC50 [1]: 1.35 µM (active)

Structure (SMILES): COc1cc(-c2cnc3c(NC=O)cc(-c4cccc(C(=O)NCCN(C)C)c4)cn23)cc(OC)c1OC
- AC50 [2]: 8.57 µM (active)
- AC50 [3]: 3.07 µM (active)

Structure (SMILES): N#C[C@@H]1[C@H](c2ccc(C#Cc3ccccc3F)cc2)[C@H](CO)N1C(=O)C1CCCCC1
- AC50 [19]: 17.6 µM (active)
- AC50 [20]: 2.67 µM (active)
- AC50 [21]: 20 µM (active)
- AC50 [22]: 27.5 µM (active)
- AC50 [23]: 14.3 µM (active)

Structure (SMILES): O=C(Cn1cnc2ccccc21)N/N=C/c1cccs1
- IC50 (cells [24]): > 29.9 µM (inactive)
- EC50 (cells [25]): > 29.9 µM (inactive)

Structure (SMILES): O=C(CNC(=O)c1cccc(F)c1)N/N=C/C=C/c1ccccc1
- IC50 (cells [24]): > 29.9 µM (inactive)
- EC50 (cells [25]): > 29.9 µM (inactive)
